ChEMBL document CHEMBL1140984, “A small molecule inhibitor of alpha4 integrin-dependent cell migration” (Bioorg Med Chem, 2009)
Calls of active or inactive are those of the source. The calls are words filed in the database; no cut-off is given here.

Experiments:
[1] = molecular target: Integrin alpha-4 (Homo sapiens) (UniProt P13612); assay: Inhibition of alpha4 integrin-dependent cell migration in PMA-stimulated human Jurkat cells at 1 or 5 uM after 4.5 hrs; format: cell-based; set-up: scale not given: the % may be the effect or the level left
[2] = molecular target: Integrin alpha-4 (Homo sapiens) (UniProt P13612); assay: Inhibition of alpha4 integrin-dependent cell migration in CHO cells expressing alpha4 integrin after 12 hrs by wound healing assay; format: cell-based
[3] = test system: Jurkat; assay: Inhibition of human Jurkat T cell motility after 4.5 hrs by modified Boyden chamber assay; format: functional, cell-based
[4] = molecular target: T1, Gamma-parvin (Homo sapiens) (UniProt Q9HBI0); assay: Binding affinity to gamma-parvin in human Jurkat cells at 100 uM by Western blot analysis; format: cell-based
T1 sequence (whole entry): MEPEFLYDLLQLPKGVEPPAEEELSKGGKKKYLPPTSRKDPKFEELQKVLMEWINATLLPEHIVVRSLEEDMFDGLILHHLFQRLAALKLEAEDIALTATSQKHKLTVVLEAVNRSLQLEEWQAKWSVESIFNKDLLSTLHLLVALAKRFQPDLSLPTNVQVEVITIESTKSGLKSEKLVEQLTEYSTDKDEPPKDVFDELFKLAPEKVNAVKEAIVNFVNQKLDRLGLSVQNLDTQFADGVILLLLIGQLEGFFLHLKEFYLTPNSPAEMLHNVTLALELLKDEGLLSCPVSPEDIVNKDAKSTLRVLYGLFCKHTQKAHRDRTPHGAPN

[5] = molecular target: Integrin alpha-4 (Homo sapiens) (UniProt P13612); assay: Inhibition of alpha4 integrin-dependent cell migration in SDF1-alpha-stimulated human Jurkat cells at 1 or 5 uM after 4.5 hrs; format: cell-based; set-up: scale not given: the % may be the effect or the level left
[6] = molecular target: Adenosine kinase (Homo sapiens) (UniProt P55263); assay: Binding affinity to ADK in human Jurkat cells at 100 uM by Western blot analysis; format: cell-based
[7] = molecular target: Integrin alpha-4 (Homo sapiens) (UniProt P13612); assay: Inhibition of alpha4 integrin-dependent cell migration in SDF1-alpha-stimulated human U937 cells at 1 or 5 uM after 4.5 hrs; format: cell-based; set-up: scale not given: the % may be the effect or the level left; details: U-937
[8] = molecular target: Integrin alpha-4 (Homo sapiens) (UniProt P13612); assay: Inhibition of alpha4 integrin-dependent cell migration in PMA-stimulated human U937 cells at 1 or 5 uM after 4.5 hrs; format: cell-based; set-up: scale not given: the % may be the effect or the level left; details: U-937

Chain of Integrin alpha-4 (Homo sapiens) (P13612 whole entry): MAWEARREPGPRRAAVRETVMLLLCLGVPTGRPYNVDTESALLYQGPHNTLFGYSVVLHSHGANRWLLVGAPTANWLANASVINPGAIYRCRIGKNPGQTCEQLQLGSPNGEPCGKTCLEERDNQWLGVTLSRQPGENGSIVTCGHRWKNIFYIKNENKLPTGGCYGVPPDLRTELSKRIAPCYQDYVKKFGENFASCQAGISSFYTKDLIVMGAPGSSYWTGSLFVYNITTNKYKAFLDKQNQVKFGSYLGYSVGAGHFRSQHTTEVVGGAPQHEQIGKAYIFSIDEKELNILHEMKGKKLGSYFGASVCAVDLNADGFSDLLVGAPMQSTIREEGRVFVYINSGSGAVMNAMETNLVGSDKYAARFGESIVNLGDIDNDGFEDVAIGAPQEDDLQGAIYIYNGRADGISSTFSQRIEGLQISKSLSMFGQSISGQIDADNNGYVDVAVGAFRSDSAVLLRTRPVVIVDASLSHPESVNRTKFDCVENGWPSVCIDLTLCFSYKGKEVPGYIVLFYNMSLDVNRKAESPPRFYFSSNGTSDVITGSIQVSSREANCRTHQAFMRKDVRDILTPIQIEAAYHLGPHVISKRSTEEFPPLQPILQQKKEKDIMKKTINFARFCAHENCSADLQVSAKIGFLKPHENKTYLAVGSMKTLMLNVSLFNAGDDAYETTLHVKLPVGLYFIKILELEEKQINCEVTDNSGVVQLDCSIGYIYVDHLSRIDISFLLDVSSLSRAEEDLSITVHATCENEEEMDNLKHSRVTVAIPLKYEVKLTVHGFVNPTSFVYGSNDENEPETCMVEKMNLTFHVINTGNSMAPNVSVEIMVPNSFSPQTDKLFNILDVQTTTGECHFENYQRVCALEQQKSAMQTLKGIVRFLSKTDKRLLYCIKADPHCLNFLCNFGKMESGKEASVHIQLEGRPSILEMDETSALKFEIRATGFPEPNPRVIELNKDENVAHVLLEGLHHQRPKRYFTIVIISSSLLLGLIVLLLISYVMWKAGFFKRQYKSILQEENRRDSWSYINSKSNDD
Chain of Adenosine kinase (Homo sapiens) (P55263 2-362 limits assumed): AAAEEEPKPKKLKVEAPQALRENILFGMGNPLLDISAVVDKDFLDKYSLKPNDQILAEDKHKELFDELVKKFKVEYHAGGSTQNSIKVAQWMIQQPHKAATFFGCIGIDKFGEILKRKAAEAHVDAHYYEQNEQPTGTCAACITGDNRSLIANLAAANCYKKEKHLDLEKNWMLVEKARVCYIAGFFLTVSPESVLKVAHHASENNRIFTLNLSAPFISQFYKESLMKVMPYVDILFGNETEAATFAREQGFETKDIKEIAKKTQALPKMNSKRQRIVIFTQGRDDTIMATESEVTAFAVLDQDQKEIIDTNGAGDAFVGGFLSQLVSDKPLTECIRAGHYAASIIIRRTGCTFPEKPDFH

Activity [1]: 40% | Activity [2]: Dose-dependent effect | IC50 [3]: 500 nM | Activity [4]: Active | Activity [5]: 40% | Activity [6]: Active | Activity [7]: 40% | Activity [8]: 40%
SMILES: Nc1ccc(-c2cc3c(Nc4cccc(Cl)c4)ncnc3[nH]2)cc1
